Laboratory results: PubChem BioAssay (NCI)
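Protocol summary: plate cells (96-well), add compound at 5 concentrations, incubate 48 h, interpolate endpoints linearly. GI50: concentration for 50% inhibition of growth. TGI denotes the concentration required for complete inhibition of growth.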

What was measured:
Assay in all cases: NCI anticancer screen, dose series, 48 h
[1] = test system: UO-31 renal
[2] = test system: COLO 205 colon
[3] = test system: EKVX NSCLC
[4] = test system: MOLT-4 leukemia
[5] = test system: UACC-62 melanoma
[6] = test system: MALME-3M melanoma
[7] = test system: ACHN renal
[8] = test system: KM12 colon
[9] = test system: K-562 leukemia
[10] = test system: 786-0 renal
[11] = test system: SK-MEL-2 melanoma
[12] = test system: SNB-75 CNS
[13] = test system: HCT-116 colon
[14] = test system: MDA-MB-231 breast
[15] = test system: M14 melanoma
[16] = test system: RPMI-8226 leukemia
[17] = test system: CAKI-1 renal
[18] = test system: SW-620 colon
[19] = test system: SR leukemia
[20] = test system: OVCAR-8 ovarian
[21] = test system: HOP-62 NSCLC
[22] = test system: OVCAR-5 ovarian
[23] = test system: SK-MEL-28 melanoma
[24] = test system: HOP-92 NSCLC
[25] = test system: OVCAR-3 ovarian
[26] = test system: TK-10 renal
[27] = test system: A549 NSCLC
[28] = test system: HS 578T breast
[29] = test system: SK-MEL-5 melanoma
[30] = test system: SF-539 CNS
[31] = test system: A498 renal
[32] = test system: SF-268 CNS
[33] = test system: PC-3 prostate
[34] = test system: IGROV1 ovarian
[35] = test system: HCC-2998 colon
[36] = test system: BT-549 breast
[37] = test system: MCF7 breast
[38] = test system: HCT-15 colon
[39] = test system: NCI-H460 lung
[40] = test system: OVCAR-4 ovarian
[41] = test system: LOX IMVI melanoma
[42] = test system: HT29 colon
[43] = test system: SNB-19 CNS
[44] = test system: SF-295 CNS
[45] = test system: MDA-MB-435
[46] = test system: UACC-257 melanoma
[47] = test system: DU-145 prostate
[48] = test system: NCI/ADR-RES ovarian
[49] = test system: NCI-H522 lung
[50] = test system: SN12C renal
[51] = test system: RXF 393 renal
[52] = test system: T-47D breast
[53] = test system: NCI-H23 lung
[54] = test system: U251 CNS
[55] = test system: NCI-H226 lung
[56] = test system: SK-OV-3 ovarian
[57] = test system: HL-60(TB) leukemia
[58] = test system: CCRF-CEM leukemia

Work on `O=C(Oc1cccc(F)c1OC(=O)c1cccc(O)c1)c1cccc(O)c1` yielded a GI50 [1] of 5.56 µM, a TGI [1] greater than 100 µM and a GI50 [2] of 24.4 µM. The TGI [2] was 73.7 µM, the GI50 [3] was 58.7 µM and the TGI [3] was greater than 100 µM. The GI50 [4] was 15.9 µM, the TGI [4] was greater than 100 µM and the GI50 [5] was 40.8 µM. For the same compound, the TGI [5] was greater than 100 µM, the GI50 [6] was greater than 100 µM and the TGI [6] was greater than 100 µM. The GI50 [7] was 23.6 µM, the TGI [7] was greater than 100 µM and the GI50 [8] was 23.1 µM. For the same compound, the TGI [8] was greater than 100 µM, the GI50 [9] was 38 µM and the TGI [9] was greater than 100 µM. It also gave a GI50 [10] of 37 µM, a TGI [10] greater than 100 µM and a GI50 [11] greater than 100 µM. It also gave a TGI [11] greater than 100 µM, a GI50 [12] of 35.5 µM and a TGI [12] greater than 100 µM. For the same compound, the GI50 [13] was 20.2 µM, the TGI [13] was greater than 100 µM and the GI50 [14] was greater than 100 µM. For the same compound, the TGI [14] was greater than 100 µM, the GI50 [15] was 34.1 µM and the TGI [15] was greater than 100 µM. For the same compound, the GI50 [16] was 14.5 µM, the TGI [16] was greater than 100 µM and the GI50 [17] was 7.47 µM. For the same compound, the TGI [17] was greater than 100 µM, the GI50 [18] was 37.4 µM and the TGI [18] was greater than 100 µM. For the same compound, the GI50 [19] was 7.91 µM, the TGI [19] was greater than 100 µM and the GI50 [20] was 22.8 µM. For the same compound, the TGI [20] was greater than 100 µM, the GI50 [21] was 50.7 µM and the TGI [21] was greater than 100 µM. The GI50 [22] was greater than 100 µM, the TGI [22] was greater than 100 µM and the GI50 [23] was 80.1 µM. The TGI [23] was greater than 100 µM, the GI50 [24] was 46.6 µM and the TGI [24] was greater than 100 µM. It also gave a GI50 [25] of 4.82 µM, a TGI [25] of 45.7 µM and a GI50 [26] of 98.6 µM. For the same compound, the TGI [26] was greater than 100 µM, the GI50 [27] was 24.6 µM and the TGI [27] was greater than 100 µM. The GI50 [28] was greater than 100 µM, the TGI [28] was greater than 100 µM and the GI50 [29] was 6.9 µM. The TGI [29] was greater than 100 µM, the GI50 [30] was 16.9 µM and the TGI [30] was greater than 100 µM. The GI50 [31] was greater than 100 µM, the TGI [31] was greater than 100 µM and the GI50 [32] was 11.2 µM. For the same compound, the TGI [32] was greater than 100 µM, the GI50 [33] was 52.9 µM and the TGI [33] was greater than 100 µM. The GI50 [34] was 7.47 µM, the TGI [34] was greater than 100 µM and the GI50 [35] was 27.5 µM. For the same compound, the TGI [35] was 84.5 µM, the GI50 [36] was 24.4 µM and the TGI [36] was greater than 100 µM. It also gave a GI50 [37] of 34.9 µM, a TGI [37] greater than 100 µM and a GI50 [38] of 15.3 µM. For the same compound, the TGI [38] was greater than 100 µM, the GI50 [39] was 11.6 µM and the TGI [39] was greater than 100 µM. The GI50 [40] was 15.2 µM, the TGI [40] was greater than 100 µM and the GI50 [41] was 13 µM. It also gave a TGI [41] greater than 100 µM, a GI50 [42] of 41.8 µM and a TGI [42] greater than 100 µM. The GI50 [43] was 99.6 µM, the TGI [43] was greater than 100 µM and the GI50 [44] was 36.1 µM. The TGI [44] was greater than 100 µM, the GI50 [45] was 66.7 µM and the TGI [45] was greater than 100 µM. It also gave a GI50 [46] of 39.8 µM, a TGI [46] greater than 100 µM and a GI50 [47] of 44.7 µM. The TGI [47] was greater than 100 µM, the GI50 [48] was 10.3 µM and the TGI [48] was 77.6 µM. It also gave a GI50 [49] of 13.4 µM, a TGI [49] of 48.8 µM and a GI50 [50] of 56.6 µM. The TGI [50] was greater than 100 µM, the GI50 [51] was 12.1 µM and the TGI [51] was 73.6 µM. For the same compound, the GI50 [52] was 23.1 µM, the TGI [52] was 79.1 µM and the GI50 [53] was 26.9 µM. For the same compound, the TGI [53] was greater than 100 µM, the GI50 [54] was 17.8 µM and the TGI [54] was greater than 100 µM. It also gave a GI50 [55] of 45.3 µM, a TGI [55] greater than 100 µM and a GI50 [56] of 84 µM. For the same compound, the TGI [56] was greater than 100 µM, the GI50 [57] was 4.28 µM and the TGI [57] was 72.3 µM.
`C=C1C(=O)O[C@H]2[C@H]1CC/C(CNC(=O)/C=C/c1cc(OC)c(OC)c(OC)c1)=C\CC[C@@]1(C)O[C@@H]21` showed a GI50 [1] of 1.55 µM, a TGI [1] of 4.08 µM and a GI50 [2] of 0.618 µM. For the same compound, the TGI [2] was 2.45 µM, the GI50 [3] was 2.22 µM and the TGI [3] was 13.8 µM. For the same compound, the GI50 [4] was 2.09 µM, the TGI [4] was 6.22 µM and the GI50 [5] was 0.73 µM. For the same compound, the TGI [5] was 2.92 µM, the GI50 [6] was 1.34 µM and the TGI [6] was 3.44 µM. The GI50 [58] was 0.478 µM, the TGI [58] was 4.37 µM and the GI50 [7] was 1.27 µM. For the same compound, the TGI [7] was 2.89 µM, the GI50 [8] was 7.62 µM and the TGI [8] was 21.1 µM. For the same compound, the GI50 [9] was 0.601 µM, the TGI [9] was 4.13 µM and the GI50 [10] was 1.29 µM. It also gave a TGI [10] of 2.9 µM, a GI50 [11] of 1.73 µM and a TGI [11] of 7.18 µM. It also gave a GI50 [12] of 2.93 µM, a TGI [12] of 22.9 µM and a GI50 [13] of 0.76 µM. The TGI [13] was 2.1 µM, the GI50 [14] was 3.01 µM and the TGI [14] was 14.1 µM. The GI50 [15] was 1.21 µM, the TGI [15] was 2.87 µM and the GI50 [16] was 1.59 µM. The TGI [16] was 5.47 µM, the GI50 [18] was 0.615 µM and the TGI [18] was 2.49 µM. For the same compound, the GI50 [19] was 0.383 µM, the TGI [19] was 9.38 µM and the GI50 [20] was 4.09 µM. The TGI [20] was 16.1 µM, the GI50 [21] was 5.29 µM and the TGI [21] was 21.9 µM. The GI50 [22] was 2.44 µM, the TGI [22] was 12.9 µM and the GI50 [23] was 1.43 µM. It also gave a TGI [23] of 3.64 µM, a GI50 [24] of 0.257 µM and a TGI [24] of 5.44 µM. For the same compound, the GI50 [25] was 0.333 µM, the TGI [25] was 1.44 µM and the GI50 [27] was 8.04 µM. For the same compound, the TGI [27] was 23.7 µM, the GI50 [28] was 4.54 µM and the TGI [28] was 27.9 µM. The GI50 [29] was 2.49 µM, the TGI [29] was 7.33 µM and the GI50 [30] was 2 µM. For the same compound, the TGI [30] was 5.93 µM, the GI50 [31] was 4.1 µM and the TGI [31] was 15.7 µM. For the same compound, the GI50 [32] was 3.59 µM, the TGI [32] was 15.6 µM and the GI50 [33] was 6.24 µM. For the same compound, the TGI [33] was 20 µM, the GI50 [34] was 3.22 µM and the TGI [34] was 13.9 µM. It also gave a GI50 [35] of 2.95 µM, a TGI [35] of 6.97 µM and a GI50 [36] of 1.51 µM. The TGI [36] was 3.95 µM, the GI50 [37] was 0.531 µM and the TGI [37] was 10.8 µM. The GI50 [38] was 2.96 µM, the TGI [38] was 13.5 µM and the GI50 [39] was 9.19 µM. It also gave a TGI [39] of 24.5 µM, a GI50 [40] of 1.51 µM and a TGI [40] of 10.5 µM. For the same compound, the GI50 [41] was 1.28 µM, the TGI [41] was 2.63 µM and the GI50 [42] was 1.59 µM. For the same compound, the TGI [42] was 8.31 µM, the GI50 [43] was 11.9 µM and the TGI [43] was 32 µM. It also gave a GI50 [44] of 4.61 µM, a TGI [44] of 18.2 µM and a GI50 [45] of 2.33 µM. For the same compound, the TGI [45] was 13.5 µM, the GI50 [46] was 1.76 µM and the TGI [46] was 5.72 µM. The GI50 [47] was 4.95 µM, the TGI [47] was 17.3 µM and the GI50 [48] was 24.4 µM. It also gave a TGI [48] greater than 100 µM, a GI50 [49] of 0.232 µM and a TGI [49] of 1.1 µM. For the same compound, the GI50 [50] was 3.46 µM, the TGI [50] was 14.3 µM and the GI50 [51] was 0.298 µM. For the same compound, the TGI [51] was 1.88 µM, the GI50 [52] was 2.25 µM and the TGI [52] was 14.8 µM. It also gave a GI50 [53] of 1.58 µM, a TGI [53] of 3.58 µM and a GI50 [54] of 4.23 µM. For the same compound, the TGI [54] was 16.4 µM, the GI50 [55] was 7.72 µM and the TGI [55] was 28.7 µM. It also gave a GI50 [56] of 17.2 µM, a TGI [56] of 33.3 µM and a GI50 [57] of 0.925 µM. It also gave a TGI [57] of 3.3 µM.
